Results from patent publication US20020052000A1, “Diagnostics for and mediators of inflammatory disorders” (priority 1996, published 2002).

Key:
VCAM-1 [1] = experiment: Cell surface VCAM-1 expression on HAEC by ELISA; format: cell-based, human
Source text: (§1) The ELISA data is supported by the Northern Blot data as illustrated in FIG. 15. […] Within 2-6 hr of stimulation, the mRNA level of the indicated genes all reached a steady state.
(§2) It was investigated whether the oxidative modification of rabbit serum albumin RSA by linoleic hydroperoxide alters the structural or biological property of an element (peptide or nonpeptide) in this material, conferring upon it a biological function as a vascular endothelial cell inflammatory signal. Using oxidatively modified RSA (oxRSA) prepared as described in Example 1, cultured human aortic endothelial cells were exposed for 12 hours with a range of oxRSA concentrations from 1 to 100 nM (nanomolar), and assayed for the cell surface expression of the inducible adhesion molecules VCAM-1, ICAM-1 or the constituitively expressed adhesion molecule ICAM-2 by ELISA assay. […] Furthermore, limulus assay for LPS in the oxRSA preparation was below detection. Constituitively expressed ICAM-2 was unaffected.

ICAM-1 [2] = experiment: Cell surface ICAM-1 expression on HAEC by ELISA; format: cell-based, human; conditions: for induction of cell surface ICAM expression: HAEC exposed 16 hr
Experimental: In a small scale synthesis reaction, sLO converted 250 uM linoleic acid (LA) into 13-HpODE within the first hour of room temperature incubation. During the subsequent 3 days incubation, 13-HpODE presumably oxidatively modified the enzyme and generating epitopes on the enzyme which can elicit biological s activity such as the expression of cell surface ICAM on HAEC as shown in ELISA assay depicted in FIG. 11. […] In the large scale synthesis reaction, only in the presence of the 13-HpODE generating system did the sLO become active as shown in FIG. 12. sLO negative control represented the sLO enzyme incubated with buffer alone for the extended period of time. We have confirmed the oxSLO synthesized by either method are functionally and immunologically identical. Furthermore, we have determined that formation of a biologically activity is protein specific. Reaction of rabbit serum albumin using the large or small scale oxykine reaction generates immunoreactive but not biologically active products.
as §2

anti-LOOH/RSA antibody = experiment: ELISA recognition of modified proteins/peptides by anti-LOOH/RSA antibody; format: binding, rabbit
Experimental: Using ELISA, it was investigated whether the LOOH/RSA antibody recognized the LOOH/modified protein and unmodified protein. Unmodified IgG-free RSA was used as control. incubation at 37° C., wells were washed with PBS three times. Goat anti-rabbit IgG conjugated with alkaline phosphatase was diluted to 1:38,000 and added. After 2 hrs incubation at 37 °C, wells were washed again and p-nitrophenolphosphate was added. Color development was determined by a plate reader (Anthos II).
Microtiter wells were coated with increasing concentrations of unmodified, or modified peptide. After blocking wells with non-fat milk powder, 100 μl of 1:250 dilution of anti-LOOH/RSA antibody was added to each well. After wash, anti-rabbit IgG conjugated with alkaline phosphatase was added to each well. After adding substrate p-nitrophenyl phosphate, the OD was measured at 405 nm using a microplate reader. Values represent averages of a triplicate set of optical density readings of wells from one of at least 2 separate trials. 20 Western blot analysis of the aldehyde- and LOOH-modified peptide confirmed that none of the aldehyde-modified synthetic proteins were recognized to any significant extent, whereas LOOH-modified peptide was recognized by the antibody.

ICAM-2 = experiment: Cell surface ICAM-2 expression on HAEC by ELISA; format: cell-based, human; conditions: 12 hours
Experimental: as §2

VCAM-1 mRNA = experiment: Northern blot VCAM-1 mRNA accumulation in HAEC; format: cell-based, human
Experimental: as §1
(§3) It was next investigated whether the induction of VCAM-1 and ICAM-1 cell surface expression by ox-RSA is due at least in part to changes in mRNA accumulation. Northern filter analysis was performed from RNA isolated from HAEC exposed for 4 hours With either TNFa (100 U/ml) or oxRSA (25 nM). Similar to that observed at the protein level, VCAM-mRNA levels were induced by ox-RSA to levels approximately 30-40% observed for TNFa.

ICAM-1 mRNA = experiment: Northern blot ICAM-1 mRNA accumulation in HAEC; format: cell-based, human
Experimental: as §1, §3

[3] = tested on: NF-kB like DNA binding activity; experiment: Gel mobility shift assay, NF-kB-like binding sites of VCAM-1 promoter; format: cell-based, human; conditions: HAEC, two hours; TNFa 100 U/ml or oxRSA 25 nM
Experimental: To determine whether oxRSA modulated nuclear regulatory events associated with redox sensitive VCAM-1 gene expression, cultured human aortic endothelial cells were exposed or not (CTL) for two hours to TNFa (100 U/ml) or 25 nM of the oxykine RSA-LOOH (oxRSA), nuclear extracts prepared and gel mobility shift assays performed using 32P-labeled kL0kR, the tandem NF-kB-like binding sites of the human VCAM-1 promoter. Appropriate cold competitor and supershift controls using anti-p50 and anti-p65 antisera (R&D Systems) were performed to establish the DNA sequence binding specificity of the NF-kB complex band. Both TNF and oxRSA inducted NF-kB like DNA binding activity.

VCAM-1 [4] = conditions: cited from earlier work; for induction of cell-surface expression of VCAM-1: human aortic endothelial cells
ICAM-1 [5] = conditions: human aortic endothelial cells; cited from earlier work
E-selectin = conditions: human aortic endothelial cells; cited from earlier work
MCP-1 mRNA = experiment: Northern blot MCP-1 mRNA accumulation in HAEC; format: cell-based, human
Source text: as §1

[6] = VCAM-1 and ICAM-1 induction, polymyxin B 10 ug/ml

## polymyxin B
VCAM-1 [1]; [6]
  effect on LPS induction: fully inhibited
  effect on oxRSA activation: no effect

## Cc1c(C)c2c(c(C)c1O)CCC(C)(C(=O)O)O2 (centres unmarked) [Trolox]
ICAM-1 [2]
  effect of addition on ICAM-1 induction by the oxykine: no effect

## oxRSA: rabbit serum albumin oxidatively modified by linoleic hydroperoxide (13-HPODE), Example 1
anti-LOOH/RSA antibody
  concentration corresponding to least amount recognized: < 2 nM
anti-LOOH/RSA antibody; antibody 1:250, above control protein
  least amount recognized by the antibody: 10 ng
ICAM-1 [2]; HAEC, 12 hours, 1 to 100 nM
  induction of ICAM-1 as percent of maximal TNF-a induced signal: 80%
ICAM-1 [2]; HAEC, 12 hours, read-out: approximate EC50 for ICAM-1 induction
  EC50: 10 to 15 nM
VCAM-1 [1]; HAEC, 12 hours, 1 to 100 nM
  induction of VCAM-1 as percent of maximal TNF-a induced signal: 40%
VCAM-1 [1]; HAEC, 12 hours, read-out: approximate EC50 for VCAM-1 induction
  EC50: 10 to 15 nM
ICAM-2
  effect on constitutively expressed ICAM-2: unaffected
VCAM-1 mRNA; 4 hours, 25 nM, TNFa 100 U/ml
  VCAM-mRNA level relative to that observed for TNFa: 30-40%
ICAM-1 mRNA; 4 hours, 25 nM
  ICAM-1 mRNA induction: induced
[3]
  NF-kB like DNA binding activity: inducted

## O=C(O)CN(CCN(CC(=O)O)CC(=O)O)CC(=O)O [EDTA]
ICAM-1 [2]
  effect of addition on ICAM-1 induction by the oxykine: no effect

## YVTKSYNETKIKFDKYKAKSHEDEL [Native peptide]
anti-LOOH/RSA antibody
  recognition by the antibody in ELISA: failed to recognize

## CCCCCCCCCCCCCCCCCC(=O)O [stearic acid]
VCAM-1 [4]
  induction of cell-surface expression of VCAM-1: do not induce
ICAM-1 [5]
  induction of cell-surface expression of ICAM-1: do not induce
E-selectin
  induction of cell-surface expression of E-selectin: do not induce

## CC(C)(Sc1cc(C(C)(C)C)c(O)c(C(C)(C)C)c1)Sc1cc(C(C)(C)C)c(O)c(C(C)(C)C)c1 [probucol]
ICAM-1 [2]
  effect of addition on ICAM-1 induction by the oxykine: no effect

## linoleyl 194 hydroperoxide
VCAM-1 [4]
  induction of cell-surface expression of VCAM-1: induce
ICAM-1 [5]
  induction of cell-surface expression of ICAM-1: not
E-selectin
  induction of cell-surface expression of E-selectin: not

## RSA: unmodified IgG-free rabbit serum albumin used as control
anti-LOOH/RSA antibody
  recognition by the antibody in ELISA: barely recognized

## CCCCC/C=C\C/C=C\C/C=C\C/C=C\CCCC(=O)O [arachidonic acid]
VCAM-1 [4]
  induction of cell-surface expression of VCAM-1: induce
ICAM-1 [5]
  induction of cell-surface expression of ICAM-1: not
E-selectin
  induction of cell-surface expression of E-selectin: not

## S=C(S)N1CCCC1 [PDTC, pyrrolidine dithiocarbamate]
VCAM-1 [4]
  effect on induction of VCAM-1 by PUFAs and their fatty acid hydroperoxides: suppressed

## CCCCC/C=C\C/C=C\CCCCCCCC(=O)O [LA, linoleic acid]
ICAM-1 [2]
  induction of cell surface ICAM expression: did not become active
VCAM-1 [4]
  induction of cell-surface expression of VCAM-1: induce
ICAM-1 [5]
  induction of cell-surface expression of ICAM-1: not
E-selectin
  induction of cell-surface expression of E-selectin: not

## CCCCCCCC/C=C\CCCCCCCC(=O)O [oleic acid]
VCAM-1 [4]
  induction of cell-surface expression of VCAM-1: do not induce
ICAM-1 [5]
  induction of cell-surface expression of ICAM-1: do not induce
E-selectin
  induction of cell-surface expression of E-selectin: do not induce

B1: soybean lipoxygenase (protein, UniProt P08170 1-839, looked up)
Seed linoleate …: MFSAGHKIKGTVVLMPKNELEVNPDGSAVDNLNAFLGRSVSLQLISATKADAHGKGKVGKDTFLEGINTSLPTLGAGESAFNIHFEWDGSMGIPGAFYIKNYMQVEFFLKSLTLEAISNQGTIRFVCNSWVYNTKLYKSVRIFFANHTYVPSETPAPLVSYREEELKSLRGNGTGERKEYDRIYDYDVYNDLGNPDKSEKLARPVLGGSSTFPYPRRGRTGRGPTVTDPNTEKQGEVFYVPRDENLGHLKSKDALEIGTKSLSQIVQPAFESAFDLKSTPIEFHSFQDVHDLYEGGIKLPRDVISTIIPLPVIKELYRTDGQHILKFPQPHVVQVSQSAWMTDEEFAREMIAGVNPCVIRGLEEFPPKSNLDPAIYGDQSSKITADSLDLDGYTMDEALGSRRLFMLDYHDIFMPYVRQINQLNSAKTYATRTILFLREDGTLKPVAIELSLPHSAGDLSAAVSQVVLPAKEGVESTIWLLAKAYVIVNDSCYHQLMSHWLNTHAAMEPFVIATHRHLSVLHPIYKLLTPHYRNNMNINALARQSLINANGIIETTFLPSKYSVEMSSAVYKNWVFTDQALPADLIKRGVAIKDPSTPHGVRLLIEDYPYAADGLEIWAAIKTWVQEYVPLYYARDDDVKNDSELQHWWKEAVEKGHGDLKDKPWWPKLQTLEDLVEVCLIIIWIASALHAAVNFGQYPYGGLIMNRPTASRRLLPEKGTPEYEEMINNHEKAYLRTITSKLPTLISLSVIEILSTHASDEVYLGQRDNPHWTSDSKALQAFQKFGNKLKEIEEKLVRRNNDPSLQGNRLGPVQLPYTLLYPSSEEGLTFRGIPNSISI
notes: unmodified soybean lipoxygenase, negative control
ICAM-1 [2]
  induction of cell surface ICAM expression: did not become active
ICAM-1 [2]; listed as unmodified sLO
  induction of cell surface ICAM expression: failed to activate
VCAM-1 mRNA; 0.008 ug/ml
  VCAM-1 mRNA: −0.14 arbitrary units
VCAM-1 mRNA; 0.08 ug/ml
  VCAM-1 mRNA: 0.12 arbitrary units
VCAM-1 mRNA; 0.8 ug/ml
  VCAM-1 mRNA: 3.36 arbitrary units
VCAM-1 mRNA; Northern blot, 4 hr
  VCAM mRNA accumulation: not
ICAM-1 mRNA; 0.008 ug/ml
  ICAM-1 mRNA: −0.51 arbitrary units
ICAM-1 mRNA; 0.08 ug/ml
  ICAM-1 mRNA: −0.09 arbitrary units
ICAM-1 mRNA; 0.8 ug/ml
  ICAM-1 mRNA: 3.14 arbitrary units
MCP-1 mRNA; 0.008 ug/ml
  MCP-1 mRNA: 1.12 arbitrary units
MCP-1 mRNA; 0.08 ug/ml
  MCP-1 mRNA: 3.1 arbitrary units
MCP-1 mRNA; 0.8 ug/ml
  MCP-1 mRNA: 12.34 arbitrary units
MCP-1 mRNA; Northern blot
  MCP-1 mRNA accumulation: not
